Experimental data published in patent US20180320217A1, “METHODS FOR SAMPLING AND MEASURING ORAL LAVAGE PROTEINS” (The Procter & Gamble Company, priority 2017, published 2018).
Counter-ions that a name gives are not always drawn.

Tests used:
diaphorase [1] = test: Formation of formazan dyes: NADH, diaphorase and malate (TABLE 8); assay type: biochemical, Clostridium kluyveri; conditions: NADH, diaphorase and malate
[2] = test system: Malate dehydrogenase and diaphorase; test: Formation of formazan dyes: Malate dehydrogenase, diaphorase and malate (TABLE 10); assay type: biochemical, pig heart
oral lavage [3] = test: Formation of formazan dyes: oral lavage, malate and diaphorase (TABLE 12); assay type: biochemical, human; conditions: oral lavage, malate and diaphorase
diaphorase [4] = test: Formation of formazan dyes: only diaphorase and malate (TABLE 14); assay type: biochemical, Clostridium kluyveri; conditions: mean of three experiments
oral lavage [5] = test: Formation of formazan dyes: oral lavage and 1-Methoxy PMS, absence of malate (TABLE 19); assay type: biochemical, human; conditions: oral lavage and 1-Methoxy PMS, absence of malate, mean of three experiments

Formation of formazan dyes, absorbance, Means 0 h (diaphorase [1]; 0 h): 3.01 | Formation of formazan dyes, absorbance, Means 1 h (diaphorase [1]; 1 h): 3.01 | Formation of formazan dyes, absorbance, Means 2 h (diaphorase [1]; 2 h): 3.00 | Formation of formazan dyes, absorbance, Means 3 h (diaphorase [1]; 3 h): 3.00 | Formation of formazan dyes, absorbance, Means 4 h (diaphorase [1]; 4 h): 3.07 | Formation of formazan dyes, absorbance, Means 6 h (diaphorase [1]; 6 h): 3.09 | Formation of formazan dyes, absorbance, Means 8 h (diaphorase [1]; 8 h): 3.17 | Formation of formazan dyes, absorbance, Means 10 h (diaphorase [1]; 10 h): 3.08 | Formation of formazan dyes, absorbance, Means 12 h (diaphorase [1]; 12 h): 3.20 | Formation of formazan dyes, absorbance, Means 0 h ([2]; Malate dehydrogenase, diaphorase and malate, 0 h): 1.72 | Formation of formazan dyes, absorbance, Means 1 h ([2]; Malate dehydrogenase, diaphorase and malate, 1 h): 2.67 | Formation of formazan dyes, absorbance, Means 2 h ([2]; Malate dehydrogenase, diaphorase and malate, 2 h): 2.93 | Formation of formazan dyes, absorbance, Means 3 h ([2]; Malate dehydrogenase, diaphorase and malate, 3 h): 3.12 | Formation of formazan dyes, absorbance, Means 4 h ([2]; Malate dehydrogenase, diaphorase and malate, 4 h): 3.48 | Formation of formazan dyes, absorbance, Means 6 h ([2]; Malate dehydrogenase, diaphorase and malate, 6 h): 3.67 | Formation of formazan dyes, absorbance, Means 8 h ([2]; Malate dehydrogenase, diaphorase and malate, 8 h): 3.73 | Formation of formazan dyes, absorbance, Means 10 h ([2]; Malate dehydrogenase, diaphorase and malate, 10 h): 3.74 | Formation of formazan dyes, absorbance, Means 12 h ([2]; Malate dehydrogenase, diaphorase and malate, 12 h): 3.71 | Formation of formazan dyes, absorbance, Means 0 h (oral lavage [3]; 0 h): 0.68 | Formation of formazan dyes, absorbance, Means 1 h (oral lavage [3]; 1 h): 0.93 | Formation of formazan dyes, absorbance, Means 2 h (oral lavage [3]; 2 h): 1.07 | Formation of formazan dyes, absorbance, Means 3 h (oral lavage [3]; 3 h): 1.14 | Formation of formazan dyes, absorbance, Means 4 h (oral lavage [3]; 4 h): 1.34 | Formation of formazan dyes, absorbance, Means 6 h (oral lavage [3]; 6 h): 1.56 | Formation of formazan dyes, absorbance, Means 8 h (oral lavage [3]; 8 h): 1.84 | Formation of formazan dyes, absorbance, Means 10 h (oral lavage [3]; 10 h): 2.10 | Formation of formazan dyes, absorbance, Means 12 h (oral lavage [3]; 12 h): 2.27 | Absorbance, formation of formazan dyes (Means) (diaphorase [4]; 0 h): 0.16 | Absorbance, formation of formazan dyes (Means) (diaphorase [4]; 1 h): 0.22 | Absorbance, formation of formazan dyes (Means) (diaphorase [4]; 2 h): 0.27 | Absorbance, formation of formazan dyes (Means) (diaphorase [4]; 3 h): 0.32 | Absorbance, formation of formazan dyes (Means) (diaphorase [4]; 4 h): 0.46 | Absorbance, formation of formazan dyes (Means) (diaphorase [4]; 6 h): 0.57 | Absorbance, formation of formazan dyes (Means) (diaphorase [4]; 8 h): 0.68 | Absorbance, formation of formazan dyes (Means) (diaphorase [4]; 10 h): 0.79 | Absorbance, formation of formazan dyes (Means) (diaphorase [4]; 12 h): 0.93
SMILES: Cc1nc(-[n+]2nc(-c3cccc(OCC(=O)O)c3)nn2-c2ccc(S(=O)(=O)[O-])cc2)sc1C [MTS, 3-(4,5-dimethylthiazol-2-yl)-5-(3-carboxymethoxyphenyl)-2-(4-sulfophenyl)-2H-tetrazolium, inner salt]
conversion to reduced formazan dyes ([2]; malate dehydrogenase, diaphorase and malate (TABLE 10)): converted to reduced formazan dyes in a time-dependent manner | Absorbance, formation of formazan dyes (Means) (oral lavage [5]; 0 h): 0.87 | Absorbance, formation of formazan dyes (Means) (oral lavage [5]; 1 h): 1.50 | Absorbance, formation of formazan dyes (Means) (oral lavage [5]; 2 h): 1.82 | Absorbance, formation of formazan dyes (Means) (oral lavage [5]; 3 h): 2.08 | Absorbance, formation of formazan dyes (Means) (oral lavage [5]; 4 h): 1.94 | Absorbance, formation of formazan dyes (Means) (oral lavage [5]; 6 h): 2.32 | Absorbance, formation of formazan dyes (Means) (oral lavage [5]; 8 h): 2.51 | Absorbance, formation of formazan dyes (Means) (oral lavage [5]; 10 h): 2.66 | Absorbance, formation of formazan dyes (Means) (oral lavage [5]; 12 h): 2.74
